Reference: patent US20230357248A1, “PYRROLOPYRIMIDINE COMPOUND AS BTK INHIBITOR AND USE THEREOF” (MEDSHINE DISCOVERY INC., priority 2019, published 2023)
Converted amounts (≈) assume the structure as drawn. Marks after values point to notes of the source that are not given here.

Tests used:
[1] = Assay of kinetic solubility; type: physicochemical; details: buffer solution, aqueous buffer, kinetic from dmso stock, pH 6.5 in table head (method says pH 7.4), 24 hours room temperature, theoretical maximum 200 μM
Experimental: The assay compound was dissolved in DMSO to prepare 10 mmol/L stock solution. 980 μL of dissolution medium was added to a 2 mL glass vial with a screw cap using a pipette (Eppendorf Research Company). […] The final concentrations of the assay compound and DMSO solution were 200 μM and 2%, respectively. The vias were capped. The theoretical maximum concentration was 200 μM. The mixture was shaken at 880 rpm at room temperature for 24 hours. The vials were centrifuged at 13,000 rpm for 30 minutes. 200 μL of supernatant was added to a 96-well plate using a digital pipette.

[2] = Plasma protein binding (PPB) assay, M; type: in vitro ADME; details: mouse, dialysis 4 hr 37° C.
Experimental: Assay procedure: 995 μL of blank plasma of various genera were weighed, and 5 μL of assay compound working solution (400 μM) or warfarin working solution (400 μM) was added so that the final concentrations of the assay compound and warfarin in plasma sample were each 2 μM. The samples were mixed thoroughly. The final concentration of DMSO (the organic phase) was 0.5%. 50 μL of the plasma samples of the assay compound and warfarin were pipetted to a sample receiving plate (in triplicate), and the corresponding volume of corresponding blank plasma or buffer was added immediately, so that the final volume in each sample well was 100 μL, wherein the volume ratio of plasma:dialysis buffer was 1:1. 500 μL of stop solution was then added to these samples. These samples were used as T0 samples for determination of recovery and stability. […] All samples were subjected to protein precipitation, and then analyzed by LC/MS/MS. Bound rate and recovery rate of protein were calculated using the following formulae: % Unbound=100*F/T, % Bound=100−% Unbound, % Recovery=100*(F+T)/T0 (wherein F is the peak area ratio of the compound in the dialysate after 4 h of dialysis; T is the peak area ratio of the compound in the plasma after 4 h of dialysis; To is the peak area ratio of the compound in the plasma sample at time zero).

rat plasma protein = test: In vivo plasma protein binding (PPB) assay in rat; type: in vitro ADME; details: rat in vivo plasma samples; dialysis 4 h 37° C.; average of 3 or 4 results
Experimental: 1.1 Preparation of Dialysis Membrane and Matrix
On the day of the assay, frozen plasma was thawed in running cold tap water. After the plasma was completely thawed, the plasma was centrifuged at 3220×g for 5 min, and suspensions and sediments in the plasma were removed.
A double-layer dialysis membrane was soaked in ultrapure water for about 1 h, and then taken out. The double-layer dialysis membrane was divided into two parts, and then soaked in ethanol-water (20:80, v:v) solution for 20 min or placed at 2-8° C. with a validity period of 1 month. Before the start of the assay, the dialysis membrane was rinsed twice with ultrapure water and soaked in ultrapure water for another 20 min for use.
1.2 The Mixing Steps of Compound Sample and the Dilution Process of Control Compound
1.2.1 The Mixing Steps of Compound Sample
An appropriate amount of original samples were transferred to a collection tube of mixed samples, and the samples in the collection tube of mixed samples were mixed thoroughly.
1.2.2 The Dilution Process of the Control Compound
The control compound was dissolved in dimethyl sulfoxide to obtain a 10 mM stock solution. A working solution of 400 μM was obtained by dilution with dimethyl sulfoxide. Preparation process of plasma sample: 995 μL of blank plasma was weighed, and 5 μL of warfarin working solution was added. […]

[3] = Pharmacokinetic evaluation in CD-1 mouse (intravenous); type: in vivo; details: male, plasma, IV 0.21 mg/kg
Experimental: Assay purpose: To assay the pharmacokinetics of the compound in CD-1 mouse (intravenous)
Pharmacokinetic study of oral and intravenously injected compound 4 and reference example 1 (compound 005-1) in CD-1 mouse
Compound 4 and reference example 1 were mixed with the solvent (10% NMP/60% PEG400/30% H2O). The mixture was vortexed and sonicated to prepare a clarified solution of 0.1 mg/mL. 7- to 10-week old CD-1 male mice were selected, and the candidate compound solution was administered intravenously at a dose of 0.21 mg/kg.
Whole blood was collected for a certain period of time to prepare the plasma. Drug concentration was analyzed by LC-MS/MS, and pharmacokinetic parameters were calculated by Phoenix WinNonlin software (Pharsight, USA).

## CO[C@@H]1C[C@@H](CO)OC[C@@H]1Nc1ncnc2[nH]cc(C(=O)c3ccc(Oc4ccccc4)cc3Cl)c12 [Compound 4]
[1]
  solubility at 24 h: 1.1 µM (≈ 0.56 µg/mL)
[2]
  fraction unbound at 4 h, 2 μM: 0.004
Rat plasma protein
  Unbound PPB: 0.2% ^a
[3]
  AUC(0-inf): 3.11 µM·h
  C0: 562 nM
  Vd: 0.85 L/kg
  clearance: 2.12 mL/min/kg
  half-life: 4.65 h
[3]; AUCu = AUC0-inf * Unbound PPB (Mouse)
  AUC: 0.0124 µM·h
